According to PMC5050167 (Bioorganic & medicinal chemistry letters, 2016):

Legend:
[1] = target: human Hsp70 (Homo sapiens, UniProt P0DMV8); experiment: Endogenous Hsp70 ATPase activity; format: biochemical
[2] = target: T1, T antigen (Simian virus 40, UniProt P03070); experiment: ATPase activity of purified T antigen; format: biochemical, polyomavirus; details: for Fold change in ATPase activity of T antigen: compound 10 μM, purified T antigen, normalized to DMSO, mean of 3 experiments
[3] = system: RMS13 and MCF7 cells; experiment: Growth inhibition of the two cancer lines; format: cell-based; details: Homo sapiens, read-out: GI50 across the two cancer lines
[4] = target: Hsp70 + Hdj2 (Homo sapiens, UniProt P0DMV8); experiment: Hsp40; format: biochemical; details: carboxylic acid in place of tetrazole
Hsp70 + Hdj2, sequence (P0DMV8 whole entry): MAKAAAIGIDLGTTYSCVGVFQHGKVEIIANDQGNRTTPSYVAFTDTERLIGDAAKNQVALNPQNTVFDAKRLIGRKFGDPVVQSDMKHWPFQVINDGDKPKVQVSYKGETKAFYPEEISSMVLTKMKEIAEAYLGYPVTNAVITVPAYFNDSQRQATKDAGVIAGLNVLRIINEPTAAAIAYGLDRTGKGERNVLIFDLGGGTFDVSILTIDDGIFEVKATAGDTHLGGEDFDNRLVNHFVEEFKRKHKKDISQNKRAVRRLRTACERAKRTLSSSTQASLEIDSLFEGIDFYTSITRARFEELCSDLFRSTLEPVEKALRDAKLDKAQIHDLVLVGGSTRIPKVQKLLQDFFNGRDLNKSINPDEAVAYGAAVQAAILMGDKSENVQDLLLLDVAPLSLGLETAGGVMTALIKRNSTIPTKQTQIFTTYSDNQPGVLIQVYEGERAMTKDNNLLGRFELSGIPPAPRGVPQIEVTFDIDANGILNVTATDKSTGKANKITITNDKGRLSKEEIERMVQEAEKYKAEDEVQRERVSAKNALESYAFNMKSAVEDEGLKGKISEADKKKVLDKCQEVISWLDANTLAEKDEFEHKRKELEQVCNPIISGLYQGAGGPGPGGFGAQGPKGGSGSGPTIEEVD

[5] = target: T1, T antigen; details: cited from earlier work
[6] = system: human foreskin fibroblasts; experiment: Cytotoxicity in human foreskin fibroblasts; format: cell-based; details: in words
[7] = system: JC Virus; experiment: JC virus replication in COS7 cells; format: cell-based; details: comparison with cidofovir

T1 sequence (P03070 whole entry): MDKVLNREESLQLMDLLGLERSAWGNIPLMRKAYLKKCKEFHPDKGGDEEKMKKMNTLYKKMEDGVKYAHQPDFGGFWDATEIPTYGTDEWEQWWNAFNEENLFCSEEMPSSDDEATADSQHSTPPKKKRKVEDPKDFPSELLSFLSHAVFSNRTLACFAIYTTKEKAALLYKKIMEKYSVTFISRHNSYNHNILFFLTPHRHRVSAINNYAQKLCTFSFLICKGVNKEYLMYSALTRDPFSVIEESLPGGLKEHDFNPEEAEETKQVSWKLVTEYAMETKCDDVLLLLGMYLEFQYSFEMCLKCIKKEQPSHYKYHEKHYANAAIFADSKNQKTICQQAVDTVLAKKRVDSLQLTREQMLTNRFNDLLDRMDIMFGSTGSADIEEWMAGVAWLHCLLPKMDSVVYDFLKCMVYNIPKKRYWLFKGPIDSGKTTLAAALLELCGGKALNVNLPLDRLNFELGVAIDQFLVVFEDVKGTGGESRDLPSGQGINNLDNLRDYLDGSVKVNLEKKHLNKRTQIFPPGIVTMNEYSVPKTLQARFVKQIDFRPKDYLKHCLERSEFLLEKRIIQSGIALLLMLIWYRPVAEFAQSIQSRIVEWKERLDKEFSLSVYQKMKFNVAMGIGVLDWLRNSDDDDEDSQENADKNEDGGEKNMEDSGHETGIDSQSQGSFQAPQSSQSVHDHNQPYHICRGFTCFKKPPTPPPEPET
human Hsp70, sequence (P0DMV8 whole entry): as the sequence (P0DMV8 whole entry) above

| SMILES | Fold change in ATPase activity of T antigen [2] [fold] | other results |
| --- | --- | --- |
| CC1=C(C(=O)OCc2ccccc2)C(c2ccc(-c3ccccc3)cc2)NC(=O)N1CCCCCc1nnn[nH]1 (centres unmarked) [BQU015242] | −1.4 | Effect on endogenous Hsp70 ATPase activity, in words [1]: modestly inhibited |
| CC1=C(C(=O)OCc2ccccc2)C(c2ccc(-c3ccccc3C)cc2)NC(=S)N1CCCCCc1nnn[nH]1 (centres unmarked) [AMT580-033] | −4.7 | – |
| CC1=C(C(=O)OCc2ccccc2)C(c2ccc(-c3ccccc3)cc2)N(Cc2ccc(-c3nnn[nH]3)cc2)C(=O)N1 (centres unmarked) [AMT628-003] | −2.3 | – |
| CC1=C(C(=O)OCc2ccccc2)C(c2ccc(-c3ccccc3C)cc2)N(Cc2ccc(-c3nnn[nH]3)cc2)C(=S)N1 (centres unmarked) [AMT551-058] | −7.5 | – |
| CC1=C(C(=O)OCc2ccccc2)C(c2ccc(-c3ccccc3)cc2)NC(=S)N1Cc1ccc(-c2nnn[nH]2)cc1 (centres unmarked) [AMT551-078] | −5.5 | – |
| CCCCCCN(C(=O)CCCCCN1C(=O)NC(c2ccc(-c3ccccc3)cc2)C(C(=O)OCc2ccccc2)=C1C)C(C(=O)NCCCC)c1ccc(OCC(=O)OC)c(C(=O)OC)c1 (centres unmarked) [MAL3-101] | – | GI50 [3]: 6 to 13 µM |
| CC1=C(C(=O)OCc2ccccc2)C(c2ccc(-c3ccccc3)cc2)NC(=S)N1CCCCCc1nnn[nH]1 (centres unmarked) [AMT580-027] | −2.1 | – |
| CC1=C(C(=O)OCc2ccccc2)C(c2ccc(-c3ccccc3)cc2)NC(=S)N1CCCCCC(=O)O (centres unmarked) [AMT551-090] | −1.5 | Effect on Hsp40-dependent activation of Hsp70, in words [4]: either lacked inhibitory activity or modesty stimulated |
| CC1=C(C(=O)OCc2ccccc2)C(c2ccc(-c3ccccc3C)cc2)NC(=O)N1Cc1ccc(-c2nnn[nH]2)cc1 (centres unmarked) [SMAL] | – | Effect on endogenous Hsp70 ATPase activity, in words [1]: modestly inhibited; Effect on T antigen ATPase activity, in words ([2]; final concentration 10 μM): significantly reduced the ATPase activity of T antigen; IC50 ([5]; read-out: IC50 T antigen ATPase activity): 5 µM; EC50 ([5]; read-out: reported EC50 (T antigen ATPase)): ~5 µM |
| Nc1ccn(C[C@@H](CO)OCP(=O)(O)O)c(=O)n1.O.O [Cidofovir] | – | Toxicity relative to the dihydropyrimidines [6]: significantly less toxic than the dihydropyrimidines |
| CC1=C(C(=O)OCc2ccccc2)C(c2ccc(-c3ccccc3C)cc2)NC(=S)N1Cc1ccc(-c2nnn[nH]2)cc1 (centres unmarked) [AMT551-093] | −7.7 | – |
| CC1=C(C(=O)OCc2ccccc2)C(c2ccc(-c3ccccc3)cc2)N(CCCCCC(=O)O)C(=S)N1 (centres unmarked) [AMT551-071] | −1.6 | – |
| CC1=C(C(=O)OCc2ccccc2)C(c2ccc(-c3ccccc3)cc2)NC(=O)N1CCCCCC(=O)O (centres unmarked) [MAL2-11B] | −1.5 | Effect on Hsp40-dependent activation of Hsp70, in words [4]: either lacked inhibitory activity or modesty stimulated |
| CC1=C(C(=O)OCc2ccccc2)C(c2ccc(-c3ccccc3C)cc2)NC(=O)N1CCCCCc1nnn[nH]1 (centres unmarked) [LR340-006] | −2.1 | – |
| CC1=C(C(=O)OCc2ccccc2)C(c2ccc(-c3ccccc3)cc2)NC(=O)N1Cc1ccc(-c2nnn[nH]2)cc1 (centres unmarked) [ML282-56] | −2.0 | – |
| CC1=C(C(=O)OCc2ccccc2)C(c2ccc(-c3ccccc3)cc2)N(Cc2ccc(-c3nnn[nH]3)cc2)C(=S)N1 (centres unmarked) [AMT580-043] | −4.5 | Inhibition of polyomavirus replication in cell culture, in words [7]: more potently than an existing drug, cidofovir |
